From patent US11766430B2, “Methods of using a phenoxypropylamine compound to treat pain” (Minerva Neurosciences, Inc., priority 2018, dated 2023)
Values joined by “and” are separate entries in the source; they are usually repeats but may differ in a detail not shown here. Equal values may be shown once.

Test system: carrageenan-induced mechanical hyperalgesia in rats
Experiment: Carrageenan-induced mechanical hyperalgesia, paw pressure test, MIN-117 1-10 mg/kg (Example 4)
Assay type: in vivo, male Sprague-Dawley rats
Details: Carrageenan 2%; for Nociceptive threshold, control paw (mean ± s.e.m.): T0 (3 h after carrageenan, before dosing); for paw withdrawal threshold, control paw, Mean: n = 10
Experimental: In this model, inflammation is induced by intraplantar injection of carrageenan (2%) into the right hindpaw of the rat. Three hours later, reaction thresholds are measured using the paw pressure test. Pressure is gradually applied to both hind paws (inflamed and control) of the rat, and reaction thresholds are determined as the pressure (g) required to elicit paw withdrawal or vocalization. Morphine (3 mg/kg, s.c.), used as positive control.
The experiments in this study used fifty (50) male Sprague-Dawley rats (SPF status, Janvier, France), each weighing 183-244 g during the experimental phase. The rats were housed in a temperature (20-24° C.) and relative humidity (45%-65%) controlled room and acclimated to an artificial day/night cycle of 12 hours light (6.30 a.m. to 6.30 p.m.)/12 hours darkness. Rats had free access to sterilized tap water and were fed ad libitum with pelleted complete diet (reference A04, S.A.F.E.). Animals were housed 4 per cage (cages Type E) and were acclimated for a period of at least 5 days before any testing. Each rat was identified by tail markings. Based on the SPF status of the animal facilities, there is no reason to expect that contaminants were present in the food, water or bedding, at levels capable of interfering with the results of the tests.
Static mechanical hyperalgesia was assessed using the Paw Pressure test or Randall & Selitto test (Randall, L. O. and Selitto, J. J., A method for measurement of analgesic activity on inflamed tissue, Arch Int Pharmacodyn, 1957(111): 409-419). This test requires the application of an increasing pressure on the hind paws between a flat surface and a blunt pointer. This test is usually used with animals with one hind paw inflamed by an injection or injured by ligation, and one normal hind paw, to evaluate drugs for analgesic action. The apparatus exerts a steadily increasing force and reaction threshold is determined as the pressure (g) required to elicit paw withdrawal and/or vocalization. In the experiment, animals were gently handled by the experimenter and static mechanical hyperalgesia was assessed. Each reaction threshold measurement was done for both hind paws.
Five (5) experimental groups of 10 rats each were used. Each group was first injected with 100 μL of a 2% carrageenan suspension was injected into the plantar aspect of the right hindpaw. Three hours after carrageenan injection, nociceptive reaction thresholds (vocalization or paw withdrawal) were measured in order to select animals meeting the inclusion criteria: 20 g<paw withdrawal threshold<240 g (baseline). The 5 groups were then administered the following: • Group 1: vehicle (0.5% HPMC), i.p., solution (negative control); • Group 2: MIN-117 (1 mg/kg, i.p.) in 0.5% HPMC, suspension; • Group 3: MIN-117 (3 mg/kg, i.p.) in 0.5% HPMC, suspension; • Group 4: MIN-117 (10 mg/kg, i.p.) in 0.5% HPMC, suspension; and • Group 5: morphine (3 mg/kg, s.c.) in 0.9% NaCl, solution (positive control).
Thirty minutes after morphine injection, the antihyperalgesic effect of morphine was evaluated using the paw pressure test. For vehicle and MIN-117 administration, the antihyperalgesic effect was evaluated after 120 min. using the paw pressure test.
Vehicle and MIN-117 were intraperitoneally administered at 10 mL/kg. Morphine was subcutaneously administered at 5 mL/kg. Dosing and testing were performed in a random order by a blinded experimenter except for the morphine-treated group. Doses were expressed in terms of free active substance.
Results were expressed as: • The paw withdrawal threshold (mean±s.e.m.) in grams of contact pressure for each group, calculated from individual paw withdrawal thresholds • The percentage of variation of the paw withdrawal threshold calculated from the mean value of the vehicle-treated group • The percentage of activity of activity of the compound on carrageenan-induced mechanical hyperalgesia, calculated as follows: […]

[1] = 3 mg/kg s.c., T0 (before dosing)
[2] = 3 mg/kg s.c., T0 + 30 min, 3 mg/kg
[3] = 3 mg/kg s.c., T0 + 30 min, listed as morphine, 3 mg/kg
[4] = Morphine 3 mg/kg s.c. group, Baseline (before dosing)
[5] = Morphine 3 mg/kg s.c., 30 min after treatment
[6] = 1 mg/kg i.p., T0 (before dosing)
[7] = 3 mg/kg i.p., T0 (before dosing)
[8] = 10 mg/kg i.p., T0 (before dosing)
[9] = MIN-117 1 mg/kg i.p. group, Baseline (before dosing)
[10] = MIN-117 1 mg/kg i.p., 120 min after treatment, hydrochloride, 1 mg/kg
[11] = MIN-117 3 mg/kg i.p. group, Baseline (before dosing)
[12] = MIN-117 3 mg/kg i.p., 120 min after treatment, hydrochloride, 3 mg/kg
[13] = MIN-117 10 mg/kg i.p. group, Baseline (before dosing)
[14] = MIN-117 10 mg/kg i.p., 120 min after treatment, hydrochloride, 10 mg/kg

CN1CC[C@]23c4c5ccc(O)c4O[C@H]2[C@@H](O)C=C[C@H]3[C@H]1C5 [Morphine, reference compound]
Effect on nociceptive threshold vs baseline pre-treatment (in words) (3 mg/kg s.c., 30 min. after the injection): marked and significant increase
Nociceptive threshold, control paw (mean ± s.e.m.) (3 mg/kg s.c.): 376 ± 14.5 g
% variation vs control paw, injured paw [1]: −47%
% variation vs vehicle-treated group, injured paw [1]: 0%
Nociceptive threshold, injured paw (mean ± s.e.m.) (3 mg/kg s.c., T0 (before dosing), 3 mg/kg): 200 ± 6.7 g
Nociceptive threshold, injured paw (mean ± s.e.m.) (3 mg/kg s.c., T0 (before dosing), listed as morphine, 3 mg/kg): 200 ± 6.7 g
% variation vs control paw, injured paw (3 mg/kg s.c., T0 + 30 min): −17%
% variation vs pre-drug threshold, injured paw (3 mg/kg s.c., T0 + 30 min): 162%
% activity, injured paw [2]: 190%
Nociceptive threshold, injured paw (mean ± s.e.m.) [2]: 524 ± 35.6 g
% activity, injured paw [3]: +190%
Nociceptive threshold, injured paw (mean ± s.e.m.) [3]: 524 ± 35.6 g
% variation vs control paw, injured paw [4]: −47%
% variation vs vehicle treated group, injured paw [4]: 0%
paw withdrawal threshold, control paw, Mean (Morphine 3 mg/kg s.c. group, Baseline (before dosing, 3 h after carrageenan)): 376 g
% activity on carrageenan-induced mechanical hyperalgesia, injured paw (Morphine 3 mg/kg s.c., 30 min): 190%
% variation vs control paw, injured paw (Morphine 3 mg/kg s.c., 30 min): −17%
% variation vs pre-drug threshold, injured paw (Morphine 3 mg/kg s.c., 30 min): 162%
paw withdrawal threshold, control paw, individual rats [5]: 680 g (4×) and 640 g (2×) and 600 g and 620 g and 560 g and 520 g
paw withdrawal threshold, injured paw, individual rats [5]: 680 g and 600 g (2×) and 500 g and 640 g and 320 g and 400 g and 540 g and 440 g and 520 g
paw withdrawal threshold, control paw, Mean [5]: 630 g

Cc1nnc(-c2cc3c(OC[C@@H](O)CN4CCC(c5ccc(Cl)c(Cl)c5)CC4)cccc3o2)o1.Cl [MIN-117, (2S)-1-(4-(3,4-dichlorophenyl)piperidin-1-yl)-3-((2-(5-methyl-1,3,4-oxadiazol-2-yl)benzofuran-4-yl)oxy)propan-2-ol hydrochloride]
Effect on nociceptive threshold vs vehicle-treated group (in words) (1 mg/kg i.p., 120 min. after treatment): did not induce any significant increase
Nociceptive threshold, control paw (mean ± s.e.m.) (1 mg/kg i.p.): 402 ± 19.9 g
% variation vs control paw, injured paw [6]: −50%
% variation vs vehicle-treated group, injured paw [6]: 1%
Nociceptive threshold, injured paw (mean ± s.e.m.) [6]: 202 ± 8.7 g
% variation vs control paw, injured paw (1 mg/kg i.p., T0 + 120 min): −39%
% variation vs pre-drug threshold, injured paw (1 mg/kg i.p., T0 + 120 min): 14%
% variation vs vehicle-treated group, injured paw (1 mg/kg i.p., T0 + 120 min): 13%
Nociceptive threshold, injured paw (mean ± s.e.m.) (1 mg/kg i.p., T0 + 120 min): 230 ± 9.5 g
Effect on nociceptive threshold vs vehicle-treated group (in words) (3 mg/kg i.p., 120 min. later): significant increase
Nociceptive threshold, control paw (mean ± s.e.m.) (3 mg/kg i.p.): 392 ± 18.4 g
% variation vs control paw, injured paw [7]: −47%
% variation vs vehicle-treated group, injured paw [7]: 4%
Nociceptive threshold, injured paw (mean ± s.e.m.) [7]: 208 ± 7.4 g
% variation vs control paw, injured paw (3 mg/kg i.p., T0 + 120 min): −23%
% variation vs pre-drug threshold, injured paw (3 mg/kg i.p., T0 + 120 min): 42%
% variation vs vehicle-treated group, injured paw (3 mg/kg i.p., T0 + 120 min): 45%
Nociceptive threshold, injured paw (mean ± s.e.m.) (3 mg/kg i.p., T0 + 120 min, hydrochloride, 3 mg/kg): 296 ± 20.8 g
Effect on nociceptive threshold vs vehicle-treated group (in words) (10 mg/kg i.p., 120 min. later): significant increase
Nociceptive threshold, control paw (mean ± s.e.m.) (10 mg/kg i.p.): 384 ± 10.2 g
% variation vs control paw, injured paw [8]: −47%
% variation vs vehicle-treated group, injured paw [8]: 2%
Nociceptive threshold, injured paw (mean ± s.e.m.) [8]: 204 ± 6.5 g
% variation vs control paw, injured paw (10 mg/kg i.p., T0 + 120 min): −27%
% variation vs pre-drug threshold, injured paw (10 mg/kg i.p., T0 + 120 min): 53%
% variation vs vehicle-treated group, injured paw (10 mg/kg i.p., T0 + 120 min): 53%
Nociceptive threshold, injured paw (mean ± s.e.m.) (10 mg/kg i.p., T0 + 120 min, hydrochloride, 10 mg/kg): 312 ± 22.7 g
% variation vs control paw, injured paw [9]: −50%
% variation vs vehicle treated group, injured paw [9]: 1%
paw withdrawal threshold, control paw, Mean (MIN-117 1 mg/kg i.p. group, Baseline (before dosing, 3 h after carrageenan)): 402 g
% activity on carrageenan-induced mechanical hyperalgesia, injured paw (MIN-117 1 mg/kg i.p., 120 min): 15%
% variation vs control paw, injured paw (MIN-117 1 mg/kg i.p., 120 min): −39%
% variation vs pre-drug threshold, injured paw (MIN-117 1 mg/kg i.p., 120 min): 14%
% variation vs vehicle treated group, injured paw (MIN-117 1 mg/kg i.p., 120 min): 13%
paw withdrawal threshold, control paw, individual rats [10]: 400 g and 440 g and 340 g and 480 g and 360 g (4×) and 380 g and 320 g
paw withdrawal threshold, injured paw, individual rats [10]: 260 g (4×) and 220 g (2×) and 240 g and 200 g (2×) and 180 g
paw withdrawal threshold, control paw, Mean (MIN-117 1 mg/kg i.p., 120 min after treatment): 380 g
% variation vs control paw, injured paw [11]: −47%
% variation vs vehicle treated group, injured paw [11]: 4%
paw withdrawal threshold, control paw, Mean (MIN-117 3 mg/kg i.p. group, Baseline (before dosing, 3 h after carrageenan)): 392 g
% activity on carrageenan-induced mechanical hyperalgesia, injured paw (MIN-117 3 mg/kg i.p., 120 min): 55%
% variation vs control paw, injured paw (MIN-117 3 mg/kg i.p., 120 min): −23%
% variation vs pre-drug threshold, injured paw (MIN-117 3 mg/kg i.p., 120 min): 42%
% variation vs vehicle treated group, injured paw (MIN-117 3 mg/kg i.p., 120 min): 45%
paw withdrawal threshold, control paw, individual rats [12]: 380 g and 360 g (5×) and 440 g and 500 g and 320 g and 420 g
paw withdrawal threshold, injured paw, individual rats [12]: 360 g and 220 g and 420 g and 280 g (3×) and 340 g and 320 g and 260 g and 200 g
paw withdrawal threshold, control paw, Mean (MIN-117 3 mg/kg i.p., 120 min after treatment): 368 g
% variation vs control paw, injured paw [13]: −47%
% variation vs vehicle treated group, injured paw [13]: 2%
paw withdrawal threshold, control paw, Mean (MIN-117 10 mg/kg i.p. group, Baseline (before dosing, 3 h after carrageenan)): 384 g
% activity on carrageenan-induced mechanical hyperalgesia, injured paw (MIN-117 10 mg/kg i.p., 120 min): 64%
% variation vs control paw, injured paw (MIN-117 10 mg/kg i.p., 120 min): −27%
% variation vs pre-drug threshold, injured paw (MIN-117 10 mg/kg i.p., 120 min): 53%
% variation vs vehicle treated group, injured paw (MIN-117 10 mg/kg i.p., 120 min): 53%
paw withdrawal threshold, control paw, individual rats [14]: 440 g (3×) and 480 g and 520 g and 400 g and 340 g and 320 g and 360 g and 540 g
paw withdrawal threshold, injured paw, individual rats [14]: 320 g (2×) and 280 g (2×) and 340 g and 360 g and 480 g and 260 g and 240 g (2×)
paw withdrawal threshold, control paw, Mean (MIN-117 10 mg/kg i.p., 120 min after treatment): 428 g
